Active and inactive are the calls of the source. The rule behind the calls is not given here.
Experiments:
HepG2 [1] = test: Cytotoxicity against human HepG2 cells assessed as growth inhibition at 100 uM after 48 hrs by MTT assay; type: functional, cell-based
Hep 3B2 [2] = test: Cytotoxicity against human Hep3B cells assessed as growth inhibition after 48 hrs by MTT assay; type: functional, cell-based
Hep 3B2 [3] = test: Induction of apoptosis in human Hep3B cells assessed as cleaved PARP level after 48 hrs by Western blot method; type: functional, cell-based
Hep 3B2 [4] = test: Induction of apoptosis in human Hep3B cells assessed as increase in cleaved caspase 3 level at 10 to 40 uM after 48 hrs by Western blot method; type: functional, cell-based
HepG2 [5] = test: Cytotoxicity against human HepG2 cells assessed as growth inhibition after 48 hrs by MTT assay; type: functional, cell-based; conditions: HepG2, 48 h
Hep 3B2 [6] = test: Induction of apoptosis in human Hep3B cells assessed as formation of apoptotic bodies at 20 uM after 48 hrs by acridine orange dye-based fluorescence microscopy; type: functional, cell-based
Hep 3B2 [7] = test: Induction of apoptosis in human Hep3B cells assessed as reduction in pro-caspase 3 level at 10 to 40 uM after 48 hrs by Western blot method; type: functional, cell-based
Hep 3B2 [8] = test: Induction of apoptosis in human Hep3B cells assessed as chromatin condensation at 20 uM after 48 hrs by acridine orange dye-based fluorescence microscopy; type: functional, cell-based
Hep 3B2 [9] = test: Cytotoxicity against human Hep3B cells assessed as growth inhibition at 100 uM after 48 hrs by MTT assay; type: functional, cell-based
Hep 3B2 [10] = test: Induction of apoptosis in human Hep3B cells assessed as cell shrinkage at 20 uM after 48 hrs by acridine orange dye-based fluorescence microscopy; type: functional

Compound	growth inhibition (GI) (HepG2 [1])	IC50 (Hep 3B2 [2])	Activity (Hep 3B2 [3])	Activity (Hep 3B2 [4])	IC50 (HepG2 [5])	Activity (Hep 3B2 [6])	Activity (Hep 3B2 [7])	Activity (Hep 3B2 [8])	growth inhibition (GI) (Hep 3B2 [9])	Activity (Hep 3B2 [10])
COC(=O)[C@@]1(C)CC(=O)C=C2C1=CC[C@@H](C)[C@]2(C)CC(=O)c1ccoc1	Active	51.6 µM								
C[C@H]1C[C@@H]2OC(=O)[C@]3(C)CCCC(=C23)[C@]12C[C@H](c1ccoc1)OC2=O	Active	42 µM	Dose-dependent effect	Active	17.9 µM	Active	Active	Active	Active	Active
O=c1[nH]cc(F)c(=O)[nH]1 [FLUOROURACIL]		49.7 µM								
